Source: patent US12540131B2 (Merck Sharp & Dohme LLC, priority 2019, dated 2026)

target: GST tagged truncated human mutant G2019S LRRK2 (Homo sapiens (Human), UniProt Q5S007, G2019S); assay: LRRK2 Km ATP LanthaScreen Assay; format: biochemical; details: G2019S LRRK2, 134 μM ATP (Km ATP), mean values
How it was run: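 Enzyme (GST-tagged, truncated) was preincubated with compound for 15 min at RT in 50 mM Tris pH 8.5, 10 mM MgCl2, 0.01% Brij-35, 1 mM EGTA, 2 mM DTT and 0.05 mM orthovanadate. Fluorescein-LRRKtide and 134 μM ATP (Km) were then added for 90 min. EDTA and Tb-anti-pERM antibody stopped the reaction; the TR-FRET 520/495 ratio gave 4-parameter IC50s, reported as mean pIC50.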

GST tagged truncated human mutant G2019S LRRK2, sequence (Q5S007 970-2527 G2019S): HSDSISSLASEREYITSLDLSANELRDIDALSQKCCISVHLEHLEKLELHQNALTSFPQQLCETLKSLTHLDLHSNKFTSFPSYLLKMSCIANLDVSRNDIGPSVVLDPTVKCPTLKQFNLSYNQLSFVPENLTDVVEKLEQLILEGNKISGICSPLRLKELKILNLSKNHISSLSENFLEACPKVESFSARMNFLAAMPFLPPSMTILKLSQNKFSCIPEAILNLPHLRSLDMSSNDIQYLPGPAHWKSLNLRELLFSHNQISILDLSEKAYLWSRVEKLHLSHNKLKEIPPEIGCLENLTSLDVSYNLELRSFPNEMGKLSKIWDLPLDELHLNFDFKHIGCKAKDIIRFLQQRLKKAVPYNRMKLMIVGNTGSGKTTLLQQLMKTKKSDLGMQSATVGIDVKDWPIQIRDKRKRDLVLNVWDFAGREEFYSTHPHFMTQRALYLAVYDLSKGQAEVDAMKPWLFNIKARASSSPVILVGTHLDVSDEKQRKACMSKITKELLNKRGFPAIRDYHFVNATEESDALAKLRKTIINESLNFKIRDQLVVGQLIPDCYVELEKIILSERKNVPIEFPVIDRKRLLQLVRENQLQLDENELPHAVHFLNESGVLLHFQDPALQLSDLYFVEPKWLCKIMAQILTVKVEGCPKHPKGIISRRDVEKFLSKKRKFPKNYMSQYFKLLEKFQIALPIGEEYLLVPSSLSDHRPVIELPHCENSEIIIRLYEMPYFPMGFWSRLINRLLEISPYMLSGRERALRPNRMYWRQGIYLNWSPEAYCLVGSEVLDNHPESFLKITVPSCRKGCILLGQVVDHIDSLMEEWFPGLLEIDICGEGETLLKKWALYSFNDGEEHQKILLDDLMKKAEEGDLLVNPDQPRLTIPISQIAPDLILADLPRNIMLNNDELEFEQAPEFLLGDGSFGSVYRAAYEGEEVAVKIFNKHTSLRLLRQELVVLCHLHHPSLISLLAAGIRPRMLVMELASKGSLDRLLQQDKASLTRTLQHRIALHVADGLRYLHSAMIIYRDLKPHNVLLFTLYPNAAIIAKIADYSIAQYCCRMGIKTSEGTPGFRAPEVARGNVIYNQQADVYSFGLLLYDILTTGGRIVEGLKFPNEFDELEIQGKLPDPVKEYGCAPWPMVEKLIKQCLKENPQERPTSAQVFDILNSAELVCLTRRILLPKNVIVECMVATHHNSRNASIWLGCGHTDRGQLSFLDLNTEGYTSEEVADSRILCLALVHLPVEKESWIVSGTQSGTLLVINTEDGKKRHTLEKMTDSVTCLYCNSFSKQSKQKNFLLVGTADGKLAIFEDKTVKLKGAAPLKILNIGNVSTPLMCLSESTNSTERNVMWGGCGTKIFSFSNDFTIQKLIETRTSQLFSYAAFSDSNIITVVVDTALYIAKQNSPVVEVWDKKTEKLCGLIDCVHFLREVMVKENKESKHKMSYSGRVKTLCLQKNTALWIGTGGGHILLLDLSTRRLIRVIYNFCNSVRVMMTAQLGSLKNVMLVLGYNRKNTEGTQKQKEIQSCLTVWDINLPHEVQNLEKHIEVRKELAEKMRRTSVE

Compound | LRRK2 pIC50
Cc1nsc(Nc2ncc3cc(Cl)c([C@H]4CCN(C5CCOC5)C[C@@H]4F)cc3n2)c1Cl (single isomer, unassigned) [Ex-8.23, (3S,4S)(S) or (3S,4S)(R) or (3R,4R)(S) or (3R,4R)(R) 6-chloro-N-(4-chloro-3-methyl-1,2-thiazol-5-yl)-7-[3-fluoro-1-(oxolan-3-yl)piperidin-4-yl]quinazolin-2-amine] | 8.12
F[C@@H]1CN(C2COC2)CC[C@H]1c1cc2nc(Nc3cnn(C4CC4(F)F)c3Cl)ncc2cc1Cl (single isomer, unassigned) [Ex-8.28, (R)(3S,4S) or (S)(3S,4S) or (R)(3R,4R) or (S)(3R,4R) 6-chloro-N-[5-chloro-1-(2,2-difluorocyclopropyl)-1H-pyrazol-4-yl]-7-[3-fluoro-1-(oxetan-3-yl)piperidin-4-yl]quinazolin-2-amine] | 9.04
F[C@@H]1CN(C2COC2)CC[C@H]1c1cc2nc(Nc3cnn(C4CC4(F)F)c3Cl)ncc2cc1Cl (single isomer, unassigned) [Ex-8.29, (R)(3S,4S) or (S)(3S,4S) or (R)(3R,4R) or (S)(3R,4R) 6-chloro-N-[5-chloro-1-(2,2-difluorocyclopropyl)-1H-pyrazol-4-yl]-7-[3-fluoro-1-(oxetan-3-yl)piperidin-4-yl]quinazolin-2-amine] | 8.88
F[C@H]1CN(C2COC2)CC[C@@H]1c1cc2nc(Nc3cnn(C4CC4(F)F)c3Cl)ncc2cc1Cl (single isomer, unassigned) [Ex-8.30, (R)(3S,4S) or (S)(3S,4S) or (R)(3R,4R) or (S)(3R,4R) 6-chloro-N-[5-chloro-1-(2,2-difluorocyclopropyl)-1H-pyrazol-4-yl]-7-[3-fluoro-1-(oxetan-3-yl)piperidin-4-yl]quinazolin-2-amine] | 8.96
F[C@H]1CN(C2COC2)CC[C@@H]1c1cc2nc(Nc3cnn(C4CC4(F)F)c3Cl)ncc2cc1Cl (single isomer, unassigned) [Ex-8.31, (R)(3S,4S) or (S)(3S,4S) or (R)(3R,4R) or (S)(3R,4R) 6-chloro-N-[5-chloro-1-(2,2-difluorocyclopropyl)-1H-pyrazol-4-yl]-7-[3-fluoro-1-(oxetan-3-yl)piperidin-4-yl]quinazolin-2-amine] | >9.20
O[C@@H]1COC[C@@H]1N1CC[C@H](c2cc3nc(Nc4cnn(C56CC(C5)C6)c4Cl)ncc3cc2Cl)[C@@H](F)C1 (single isomer, unassigned) [Ex-8.32, (3S,4S)(3S,4S) or (3S,4S)(3R,4R) or (3R,4R)(3S,4S) or (3R,4R)(3R,4R) 4-[4-(2-{[1-(bicyclo[1.1.1]pentan-1-yl)-5-chloro-1H-pyrazol-4-yl]amino}-6-chloroquinazolin-7-yl)-3-fluoropiperidin-1-yl]oxolan-3-ol] | 9.05
Cc1cc2cnc(Nc3cnn(C45CC(C4)C5)c3Cl)nc2cc1[C@@H]1CCN([C@@H]2COC[C@@H]2O)C[C@H]1F (single isomer, unassigned) [Ex-8.33, (3S,4S)(3S,4S) or (3S,4S)(3R,4R) or (3R,4R)(3S,4S) or (3R,4R)(3R,4R) 4-[4-(2-{[1-(bicyclo[1.1.1]pentan-1-yl)-5-chloro-1H-pyrazol-4-yl]amino}-6-methylquinazolin-7-yl)-3-fluoropiperidin-1-yl]oxolan-3-ol] | >9.20
Cc1cc2cnc(Nc3cnn(C45CC(C4)C5)c3Cl)nc2cc1[C@@H]1CCN([C@H]2COC[C@H]2O)C[C@H]1F (single isomer, unassigned) [Ex-8.34, (3S,4S)(3S,4S) or (3S,4S)(3R,4R) or (3R,4R)(3S,4S) or (3R,4R)(3R,4R) 4-[4-(2-{[1-(bicyclo[1.1.1]pentan-1-yl)-5-chloro-1H-pyrazol-4-yl]amino}-6-methylquinazolin-7-yl)-3-fluoropiperidin-1-yl]oxolan-3-ol] | >9.20
Cc1cc2cnc(Nc3cnn(C45CC(C4)C5)c3Cl)nc2cc1[C@H]1CCN([C@@H]2COC[C@@H]2O)C[C@@H]1F (single isomer, unassigned) [Ex-8.35, (3S,4S)(3S,4S) or (3S,4S)(3R,4R) or (3R,4R)(3S,4S) or (3R,4R)(3R,4R) 4-[4-(2-{[1-(bicyclo[1.1.1]pentan-1-yl)-5-chloro-1H-pyrazol-4-yl]amino}-6-methylquinazolin-7-yl)-3-fluoropiperidin-1-yl]oxolan-3-ol] | 8.68
Cc1cc2cnc(Nc3cnn(C45CC(C4)C5)c3Cl)nc2cc1[C@H]1CCN([C@H]2COC[C@H]2O)C[C@@H]1F (single isomer, unassigned) [Ex-8.36, (3S,4S)(3S,4S) or (3S,4S)(3R,4R) or (3R,4R)(3S,4S) or (3R,4R)(3R,4R) 4-[4-(2-{[1-(bicyclo[1.1.1]pentan-1-yl)-5-chloro-1H-pyrazol-4-yl]amino}-6-methylquinazolin-7-yl)-3-fluoropiperidin-1-yl]oxolan-3-ol] | 8.38
O[C@H]1COC[C@H]1N1CC[C@H](c2cc3nc(Nc4cnn(C56CC(C5)C6)c4Cl)ncc3cc2Cl)[C@@H](F)C1 (single isomer, unassigned) [Ex-8.37, (3S,4S)(3S,4S) or (3S,4S)(3R,4R) or (3R,4R)(3S,4S) or (3R,4R)(3R,4R) 4-[4-(2-{[1-(bicyclo[1.1.1]pentan-1-yl)-5-chloro-1H-pyrazol-4-yl]amino}-6-chloroquinazolin-7-yl)-3-fluoropiperidin-1-yl]oxolan-3-ol] | >9.20
Cc1c(Nc2ncc3cc(C(F)(F)F)c(C4CCN([C@@]5(C)COC[C@H]5O)CC4)cc3n2)cnn1C1CC1 (single isomer, unassigned) [Ex-9.1, (3S,4S) or (3R,4R) 4-(4-(2-((1-cyclopropyl-5-methyl-1H-pyrazol-4-yl)amino)-6-(trifluoromethyl)quinazolin-7-yl)piperidin-1-yl)-4-methyltetrahydrofuran-3-ol] | 9.19
Cc1cc(Nc2ncc3cc(Cl)c(C4CCN(C)CC4F)cc3n2)sn1 (stereo in doubt) [Ex-4.52, (3S,4R) or (3R,4R) 6-chloro-7-(3-fluoro-1-methylpiperidin-4-yl)-N-(3-methyl-1,2-thiazol-5-yl)quinazolin-2-amine] | 9.06
CC1(O)CCC(c2cc3nc(Nc4cnn(C5CC5)c4Cl)ncc3cc2Cl)CC1 (stereo not drawn) [Ex-1.17, cis-or trans-4-(6-chloro-2-((5-chloro-1-cyclopropyl-1H-pyrazol-4-yl)amino)quinazolin-7-yl)-1-methylcyclohexan-1-ol] | 8.58
CC1(O)CCC(c2cc3nc(Nc4cnn(C5CC5)c4)ncc3cc2Cl)CC1 (stereo not drawn) [Ex-1.18, cis-or trans-4-(6-chloro-2-((1-cyclopropyl-1H-pyrazol-4-yl)amino)quinazolin-7-yl)-1-methylcyclohexan-1-ol] | 8.59
COCC12CC(n3cc(Nc4ncc5cc(Cl)c(C6CCN(C7(C)COC7)CC6)cc5n4)cn3)(C1)C2 [Ex-2.3, 6-chloro-N-(1-(3-(methoxymethyl)bicyclo[1.1.1]pentan-1-yl)-1H-pyrazol-4-yl)-7-(1-(3-methyloxetan-3-yl)piperidin-4-yl)quinazolin-2-amine] | >9.20
COC(C)(C)Cn1ncc(Nc2ncc3cc(Cl)c(C4CCN(C5COC5)CC4)cc3n2)c1Cl [Ex-2.10, 6-chloro-N-[5-chloro-1-(2-methoxy-2-methylpropyl)-1H-pyrazol-4-yl]-7-[1-(oxetan-3-yl)piperidin-4-yl]quinazolin-2-amine] | >9.20
CC(C)(Cn1ncc(Nc2ncc3cc(Cl)c(C4CCN(C5COC5)CC4)cc3n2)c1Cl)OC(F)F [Ex-2.13, 6-chloro-N-{5-chloro-1-[2-(difluoromethoxy)-2-methylpropyl]-1H-pyrazol-4-yl}-7-[1-(oxetan-3-yl)piperidin-4-yl]quinazolin-2-amine] | 9.15
COC(C)(C)Cn1ncc(Nc2ncc3cc(Cl)c(C4CCN(C5COC5)CC4)cc3n2)c1C [Ex-2.14, 6-chloro-N-[1-(2-methoxy-2-methylpropyl)-5-methyl-1H-pyrazol-4-yl]-7-[1-(oxetan-3-yl)piperidin-4-yl]quinazolin-2-amine] | 9.17

same assay, conditions: G2019S LRRK2, 134 μM ATP (Km ATP), mean values; read-out: LRRK2 pIC50 (converted)

Compound | IC50
CC(O)(Cn1ncc(Nc2ncc3cc(Cl)c(C4CCN(C5COC5)CC4)cc3n2)c1Cl)C(F)(F)F (single isomer, unassigned) [Ex-8.25, (S) or (R) 3-[5-chloro-4-({6-chloro-7-[1-(oxetan-3-yl)piperidin-4-yl]quinazolin-2-yl}amino)-1H-pyrazol-1-yl]-1,1,1-trifluoro-2-methylpropan-2-ol] | < 0.631 nM
CC(O)(Cn1ncc(Nc2ncc3cc(Cl)c(C4CCN(C5COC5)CC4)cc3n2)c1Cl)C(F)(F)F (single isomer, unassigned) [Ex-8.27, (S) or (R) 3-[5-chloro-4-({6-chloro-7-[1-(oxetan-3-yl)piperidin-4-yl]quinazolin-2-yl}amino)-1H-pyrazol-1-yl]-1,1,1-trifluoro-2-methylpropan-2-ol] | 0.851 nM
Cn1nc(Cl)cc1Nc1ncc2cc(Cl)c(C3CCN([C@@]4(C)COC[C@H]4O)CC3)cc2n1 (single isomer, unassigned) [Ex-10.1, (3S,4S) or (3R,4R) 4-(4-(6-chloro-2-((3-chloro-1-methyl-1H-pyrazol-5-yl)amino)quinazolin-7-yl)piperidin-1-yl)-4-methyltetrahydrofuran-3-ol] | 0.776 nM
Cc1cc2cnc(Nc3cnn(C4CC4(F)F)c3Cl)nc2cc1C1CCN([C@@H]2COC[C@@H]2O)CC1 (stereo in doubt) [Ex-2.34, 4-[4-(2-{[5-chloro-1-(2,2-difluorocyclopropyl)-1H-pyrazol-4-yl]amino}-6-methylquinazolin-7-yl)piperidin-1-yl]oxolan-3-ol] | < 0.631 nM
